According to patent publication US6737383B1, “Herbicidal oxadiazolidines” (priority 1999, dated 2004):

How the values were obtained:
bedstraw = assay: Test B pre/postemergence bedstraw; format: in vivo, Galium aparine
How it was run: (§1)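 Test chemicals in a non-phytotoxic solvent mixture with surfactant were sprayed preemergence onto planted seeds and postemergence onto plants 2 to 18 cm tall (1- to 4-leaf stage). After twelve to sixteen days in a greenhouse, injury was visually rated against untreated controls from 0 (no effect) to 10 (complete control).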

blackgrass = assay: Test B pre/postemergence blackgrass; format: in vivo, Alopecurus myosuroides
How it was run: as §1

surinam grass = assay: Test B pre/postemergence surinam grass; format: in vivo, Brachiaria decumbens
How it was run: as §1

smallflower flatsedge = assay: Test B flood test smallflower flatsedge; format: in vivo, Cyperus difformis
How it was run: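 Flood test on plants grown to the 2-leaf stage; treated plants kept in greenhouse twelve to sixteen days, then visually rated against controls on a 0 (no effect) to 10 (complete control) scale.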

[1] = Preemergence, Rate 62 g/ha, scale 0 to 10 (0 no effect, 10 complete control)
[2] = Preemergence, Rate 125 g/ha, 0 is no effect, 10 is complete control
[3] = Preemergence, Rate 250 g/ha, scale of 0 to 10 where 0 is no effect and 10 is complete control
[4] = Preemergence, Rate 500 g/ha, scale 0 to 10 (0 no effect, 10 complete control)
[5] = Rate 500 g/ha, Postemergence, scale 0 to 10, 0 no effect, 10 complete control
[6] = Postemergence, Rate 125 g/ha, scale of 0 to 10 where 0 is no effect and 10 is complete control
[7] = Rate 62 g/ha, Postemergence, scale of 0 to 10 where 0 is no effect and 10 is complete control
[8] = Rate 250 g/ha, Postemergence, scale 0 to 10, 0 is no effect, 10 is complete control
[9] = Postemergence, Rate 62 g/ha, scale 0 to 10, 0 is no effect, 10 is complete control
[10] = Postemergence, Rate 250 g/ha, scale of 0 to 10, 0 is no effect, 10 is complete control
[11] = Preemergence, Rate 250 g/ha, scale 0 to 10 (0 no effect, 10 complete control)
[12] = Preemergence, Rate 500 g/ha, scale of 0 to 10 where 0 is no effect and 10 is complete control
[13] = Postemergence, Rate 500 g/ha, scale of 0 to 10 where 0 is no effect and 10 is complete control
[14] = Preemergence, Rate 125 g/ha, scale of 0 to 10 where 0 is no effect and 10 is complete control
[15] = Postemergence, Rate 250 g/ha, scale 0 to 10
[16] = Rate 125 g/ha, Postemergence, scale 0 to 10, 0 is no effect, 10 is complete control
[17] = Preemergence, Rate 250 g/ha, scale 0 to 10, 0 is no effect, 10 is complete control
[18] = Preemergence, Rate 500 g/ha, scale 0 to 10, 0 is no effect, 10 is complete control

Compound: CC(C)N(C(=O)n1oc(=O)n(-c2cnn(C)c2Cl)c1=O)c1ccccc1 [Compound 122]
- Bedstraw plant response rating (bedstraw; [1]): 0
- Bedstraw plant response rating (0 to 10 scale) (bedstraw; [2]): 0
- Plant response rating, Bedstraw (bedstraw; [3]): 0
- Bedstraw plant response rating (bedstraw; [4]): 0
- Bedstraw plant response rating (bedstraw; [5]): 3
- Blackgrass plant response rating (blackgrass; [6]): 0
- Blackgrass plant response rating (blackgrass; [1]): 0
- Blackgrass plant response rating (0 to 10 scale) (blackgrass; [2]): 0
- Plant response rating, Blackgrass (blackgrass; [3]): 0
- Blackgrass plant response rating (blackgrass; [4]): 3
- Blackgrass plant response rating (blackgrass; [7]): 0
- Plant response rating, Blackgrass (blackgrass; [8]): 4
- Blackgrass plant response rating (blackgrass; [5]): 6
- B. signalgrass plant response rating (surinam grass; [9]): 0
- B. signalgrass plant response rating (surinam grass; [6]): 0
- B. signalgrass plant response rating (surinam grass; [1]): 0
- B. signalgrass plant response rating (0 to 10 scale) (surinam grass; [2]): 0
- Plant response rating, B. signalgrass (surinam grass; [3]): 0
- B. signalgrass plant response rating (surinam grass; [4]): 5
- Plant response rating, B. signalgrass (surinam grass; [8]): 0
- B. signalgrass plant response rating (surinam grass; Rate 500 g/ha, Postemergence, scale of 0 to 10 where 0 is no effect and 10 is complete control): 0
- S. Flatsedge plant response rating (smallflower flatsedge; Postemergence (flood test species), Rate 125 g/ha, scale of 0 to 10 where 0 is no effect and 10 is complete control): 0
- S. Flatsedge plant response rating (smallflower flatsedge; Pre-emergence, Rate 1000 g/ha, scale 0 to 10 (0 no effect, 10 complete control)): 0
- S. Flatsedge plant response rating (smallflower flatsedge; Rate 62 g/ha, Postemergence section, flood test species, scale of 0 to 10 where 0 is no effect and 10 is complete control): 0
- Plant response rating, S. Flatsedge (smallflower flatsedge; Rate 250 g/ha, Postemergence (flood test), scale 0 to 10, 0 is no effect, 10 is complete control): 0
- S. Flatsedge plant response rating (smallflower flatsedge; Rate 250 g/ha, headed Pre-emergence (flood test species), scale 0 to 10 (0 no effect, 10 complete control)): 0
- Plant response rating, S. Flatsedge (smallflower flatsedge; Rate 500 g/ha, headed Pre-emergence (flood test species), scale 0 to 10 (0 no effect, 10 complete control)): 0
- S. Flatsedge plant response rating (smallflower flatsedge; Rate 500 g/ha, listed under Postemergence (flood test species), scale 0 to 10, 0 no effect, 10 complete control): 0
- S. Flatsedge plant response rating (smallflower flatsedge; Rate 2000 g/ha, Pre-emergence (as headed), scale 0 to 10): 0

Compound: CC(C)N(C(=O)n1oc(=O)n(CNC(=O)c2ccccc2)c1=O)c1ccc(F)cc1F [Compound 619]
- Plant response rating, Bedstraw (bedstraw; [9]): 0
- Bedstraw plant response rating (bedstraw; [10]): 0
- Plant response rating, Bedstraw (bedstraw; [11]): 0
- Bedstraw plant response rating (bedstraw; [12]): 0
- Plant response rating, Blackgrass (blackgrass; [9]): 0
- Plant response rating, Blackgrass (blackgrass; [6]): 0
- Blackgrass plant response rating (blackgrass; [10]): 0
- Plant response rating, Blackgrass (blackgrass; [13]): 0
- Blackgrass plant response rating (blackgrass; [1]): 0
- Blackgrass plant response rating (blackgrass; [14]): 0
- Plant response rating, Blackgrass (blackgrass; [11]): 0
- Blackgrass plant response rating (blackgrass; [12]): 0
- Plant response rating, B. signalgrass (surinam grass; [9]): 0
- Plant response rating, B. signalgrass (surinam grass; [6]): 0
- B. signalgrass plant response rating (surinam grass; [10]): 0
- Plant response rating, B. signalgrass (surinam grass; [13]): 2
- B. signalgrass plant response rating (surinam grass; [1]): 0
- B. signalgrass plant response rating (surinam grass; [14]): 0
- Plant response rating, B. signalgrass (surinam grass; [11]): 0
- B. signalgrass plant response rating (surinam grass; [12]): 3
- Plant response rating, S. Flatsedge (0 to 10 scale, 0 is no effect, 10 is complete control) (smallflower flatsedge; Rate 62 g/ha, flood test species, Pre-emergence, visual evaluation after twelve to sixteen days): 0
- S. Flatsedge plant response rating (0 to 10 scale, 0 is no effect, 10 is complete control) (smallflower flatsedge; Rate 125 g/ha, under heading Pre-emergence, flood test species, visual evaluation after twelve to sixteen days): 0
- S. Flatsedge plant response rating (smallflower flatsedge; Rate 250 g/ha, Pre-emergence (flood test species), scale 0 to 10, 0 is no effect, 10 is complete control): 0
- S. Flatsedge plant response rating (smallflower flatsedge; Rate 500 g/ha, Pre-emergence section of Table B, 0 to 10 scale (0 no effect, 10 complete control)): 0

Compound: CC(C)N(C(=O)n1oc(=O)n(CC2=NOCCC2)c1=O)c1ccccc1 [Compound 430]
- Bedstraw plant response rating (bedstraw; [15]): 0
- Bedstraw plant response rating (bedstraw; [13]): 3
- Bedstraw plant response rating (bedstraw; [16]): 0
- Blackgrass plant response rating (blackgrass; [15]): 7
- Blackgrass plant response rating (blackgrass; [13]): 8
- Plant response rating, Blackgrass (blackgrass; [1]): 0
- Plant response rating, Blackgrass (blackgrass; [14]): 3
- Blackgrass plant response rating (blackgrass; [17]): 7
- Blackgrass plant response rating (blackgrass; [18]): 9
- Blackgrass plant response rating (blackgrass; [7]): 2
- Blackgrass plant response rating (blackgrass; [16]): 3
- B. signalgrass plant response rating (surinam grass; Postemergence, Rate 250 g/ha, scale 0 to 10, 0 no effect, 10 complete control): 6
- B. signalgrass plant response rating (surinam grass; [13]): 8
- Plant response rating, B. signalgrass (surinam grass; [1]): 1
- Plant response rating, B. signalgrass (surinam grass; [14]): 2
- B. signalgrass plant response rating (surinam grass; [17]): 3
- B. signalgrass plant response rating (surinam grass; [18]): 3
- B. signalgrass plant response rating (surinam grass; [7]): 0
- B. signalgrass plant response rating (surinam grass; [16]): 1
- S. Flatsedge plant response rating (smallflower flatsedge; Postemergence block (flood test species), Rate 250 g/ha, scale 0 to 10): 0
- S. Flatsedge plant response rating (smallflower flatsedge; Postemergence section (flood test species), Rate 500 g/ha, scale of 0 to 10 where 0 is no effect and 10 is complete control): 0
- S. Flatsedge plant response rating (smallflower flatsedge; Rate 125 g/ha, Postemergence section (flood test species), scale 0 to 10, 0 is no effect, 10 is complete control): 0
